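Exposure lasted 48 hours, with cells grown in 96-well plates and compounds tested at five concentrations. TGI: total growth inhibition.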
Experiments:
Test in all cases: inhibition of tumour cell growth, NCI panel, 48 h
[1] = test system: COLO 205 colon
[2] = test system: HCT-116 colon
[3] = test system: NCI/ADR-RES ovarian
[4] = test system: HCT-15 colon
[5] = test system: HT29 colon
[6] = test system: UACC-257 melanoma
[7] = test system: TK-10 renal
[8] = test system: HS 578T breast
[9] = test system: A549 NSCLC
[10] = test system: OVCAR-8 ovarian
[11] = test system: OVCAR-5 ovarian
[12] = test system: M14 melanoma
[13] = test system: MDA-MB-435
[14] = test system: K-562 leukemia
[15] = test system: MDA-MB-231 breast
[16] = test system: MALME-3M melanoma
[17] = test system: NCI-H226 lung
[18] = test system: MCF7 breast
[19] = test system: KM12 colon

Compound: COc1ccc(Cc2cc(OC)c(OC)c(OC)c2)cc1O
- TGI [1]: > 57.1 µM
- TGI [2]: 13.6 µM
- TGI [3]: > 100 µM
- TGI [4]: > 100 µM
- TGI [5]: > 90.6 µM
- TGI [6]: > 100 µM
- TGI [7]: > 100 µM
- TGI [8]: > 100 µM
- TGI [9]: > 100 µM
- TGI [10]: > 100 µM
- TGI [11]: > 100 µM
- TGI [12]: > 100 µM
- TGI [13]: > 100 µM
- TGI [14]: > 100 µM
- TGI [15]: > 100 µM
- TGI [16]: > 100 µM
- TGI [17]: 99.4 µM
- TGI [18]: > 100 µM

Compound: O=C(CN1CCOCC1)c1ccc2[nH]c(=O)oc2c1
- TGI [1]: > 100 µM
- TGI [2]: > 100 µM
- TGI [3]: > 100 µM
- TGI [4]: > 100 µM
- TGI [19]: > 100 µM
- TGI [5]: > 100 µM
- TGI [6]: > 100 µM
- TGI [7]: > 100 µM
- TGI [8]: > 100 µM
- TGI [10]: > 100 µM
- TGI [11]: > 100 µM
- TGI [12]: > 100 µM
- TGI [13]: > 100 µM
- TGI [14]: > 100 µM
- TGI [15]: > 100 µM
- TGI [16]: > 100 µM
- TGI [17]: > 100 µM
- TGI [18]: > 100 µM

Compound: CC(C)(C)C1CCC2c3c([nH]c4ccccc34)C3C(=O)N(c4cccc(Cl)c4)C(=O)C3C2C1 (configuration not stated)
- TGI [1]: 35.8 µM
- TGI [2]: 19.3 µM
- TGI [3]: 34 µM
- TGI [4]: 42.6 µM
- TGI [19]: 14.5 µM
- TGI [5]: 20 µM
- TGI [6]: 29.6 µM
- TGI [7]: 39 µM
- TGI [8]: > 68.1 µM
- TGI [9]: > 55.8 µM
- TGI [10]: > 55.6 µM
- TGI [11]: 30.3 µM
- TGI [12]: 28.3 µM
- TGI [13]: 48.9 µM
- TGI [14]: > 49.6 µM
- TGI [15]: 29.6 µM
- TGI [16]: 32.4 µM
- TGI [17]: 39.9 µM
- TGI [18]: 4.22 µM

Compound: Cn1ccnc1SC(F)(F)c1nc2ccccc2o1
- TGI [1]: > 100 µM
- TGI [2]: > 100 µM
- TGI [3]: > 100 µM
- TGI [4]: > 100 µM
- TGI [19]: > 100 µM
- TGI [5]: > 100 µM
- TGI [6]: > 100 µM
- TGI [7]: > 100 µM
- TGI [8]: > 100 µM
- TGI [9]: > 100 µM
- TGI [10]: > 100 µM
- TGI [11]: > 100 µM
- TGI [12]: > 100 µM
- TGI [13]: > 100 µM
- TGI [14]: > 100 µM
- TGI [15]: > 100 µM
- TGI [16]: > 100 µM
- TGI [17]: > 100 µM
- TGI [18]: > 100 µM

Compound: O=C1OC(C2Cc3cc4c(cc3C2=O)CCC4)c2ccccc21 (configuration not stated)
- TGI [1]: > 100 µM
- TGI [2]: > 100 µM
- TGI [3]: > 100 µM
- TGI [4]: > 100 µM
- TGI [19]: > 100 µM
- TGI [5]: > 100 µM
- TGI [6]: > 100 µM
- TGI [7]: > 100 µM
- TGI [8]: > 100 µM
- TGI [9]: > 100 µM
- TGI [10]: > 100 µM
- TGI [11]: > 100 µM
- TGI [12]: > 100 µM
- TGI [13]: > 100 µM
- TGI [14]: > 100 µM
- TGI [15]: > 100 µM
- TGI [16]: > 100 µM
- TGI [17]: 58.6 µM
- TGI [18]: > 100 µM

Compound: CSc1nc(C)cc(N(C)c2ccccc2)n1
- TGI [1]: > 100 µM
- TGI [2]: > 100 µM
- TGI [3]: 63.6 µM
- TGI [4]: > 100 µM
- TGI [19]: 20 µM
- TGI [5]: 49.5 µM
- TGI [6]: 84 µM
- TGI [7]: 98.9 µM
- TGI [8]: 86.6 µM
- TGI [9]: > 100 µM
- TGI [10]: 93 µM
- TGI [11]: > 100 µM
- TGI [12]: > 100 µM
- TGI [13]: 53 µM
- TGI [14]: > 100 µM
- TGI [15]: 87.3 µM
- TGI [16]: > 100 µM
- TGI [17]: 93.9 µM
- TGI [18]: 75.4 µM

— PubChem BioAssay (NCI)
